# “Also recorded” adds a separate entry of the source.
# Legend:
# Beagle dogs = experiment: Dog study: pulmonary and systemic hemodynamics, hypoxic pulmonary vasoconstriction; type: in vivo; conditions: for MPAP and PVR during hypoxia (words): iv bolus + continuous infusion (AZ, benzolamide 2 mg/kg + 2 mg/kg/h; ethoxzolamide 1 mg/kg + 1 mg/kg/h)
# Description: A total of 30 experiments were performed on six female Beagle dogs (body wt 14.3±0.3 kg). The dogs were kept under highly standardized conditions and received a standardized diet five days before the experiments. The preparation and catheterization of the conscious dog were performed according to former experiments as in Höhne C., et al., J Appl Physiol (2004), which is hereby incorporated by reference in its entirety. To permit spontaneous breathing through a low resistance circuit, a face mask was attached, which enclosed the dog's snout in a leak proof fashion. This custom made mask is equipped with a 2.5 cm ID connector to connect it to a ventilator set to CPAP mode (3 4 cmH20) (Servo900C; Siemens-Elema, Erlangen/Germany).
# Six dogs were studied in five different protocols in randomized order:
# 4) Benzolamide intravenously: Bolus (2 mg/kg), followed by a continuous infusion of 2 mg·kg^−1·h^−1, a dosage which inhibits only renal and vascular endothelial extracellular CA, without affecting red cell CA as in Travis D. M., et al. J Pharmacol Exp Ther (1964), which is hereby incorporated by reference in its entirety. 5) Ethoxzolamide (Sigma-Aldrich, Steinheim/Germany) intravenously: Bolus ethoxzolamide (1 mg/kg), followed by a continuous infusion of 1 mg·kg^−1·h^−1.
# In control experiments, the dogs breathed room air (21% O2, 79% N2; normoxia) for one hour, followed by breathing a gas mixture containing 10% O2 and 90% N2 for two hours (hypoxia). The time course was the same for the CA inhibitor experiments, but F1O2 was reduced to 0.09 during the hypoxia period to match the arterial and alveolar PO2 of the control dogs, which otherwise would have been higher on 10% O2 as a result of the known ventilatory stimulant effect of all CA inhibitors. See Höhne C., et al., J Appl Physiol 97:515-521 (2004), which is hereby incorporated by reference in its entirety. The hemodynamic measurements (arterial blood pressure, heart rate, central venous pressure, pulmonary artery pressure, pulmonary capillary wedge pressure), minute ventilation, renal function data, time points for blood samples for blood gases, actual bicarbonate, base excess, plasma electrolytes and hormones, measurements of plasma and urinary values were according to former studies. See Höhne C., et al., J Appl Physiol 90:1842-1848 (2001), which is hereby incorporated by reference in its entirety.
# Values are given as means±SEM (n=6). For intra-group comparisons a general linear model of analysis of variance (GLM-ANOVA) for repeated measures was applied (NCSS97/PASS 2000, Saugus/MA, USA). Post-hoc testing of means was performed with Student's t-test. Level of significance for error of first order was adjusted according to Holm's procedure. Statistical significance was assumed at p<0.05.
# PASMCs = experiment: Intracellular pH (pHi) in PASMCs (BCECF-AM); type: cell-based, rat; conditions: for basal pHi, Baseline: before the compound
# Description: The method for obtaining single PASMCs has been described previously in Shimoda L. A., et al., Am J Physiol 274: 842-853 (1998), which is hereby incorporated by reference in its entirety. Intrapulmonary arteries (200-600 μm o.d.) were isolated from male Wistar rats (250-350 g) and cleaned of connective tissue. After the lumen was gently rubbed with a cotton swab to remove the endothelial cells, the arteries were allowed to recover for 30 minutes in cold (4° C.) HBSS containing (in mM): 130 NaCl, 5 KCl, 1.2 MgCl2, 1.5 CaCl2, 10 N-[2-hydroxyethyl]piperazine-N′-[2-ethanesulfonic acid] (HEPES) and 10 glucose, with pH adjusted to 7.2 with 5 M NaOH, followed by 20 minutes in reduced-Ca^2+ (20 μM CaCl2) HBSS at room temperature. The tissue was enzymatically digested in reduced-Ca^2+ HBSS containing collagenase (type I; 1750 U/ml), papain (9.5 U/ml), bovine serum albumin (2 mg/ml) and dithiothreitol (1 mM) at 37° C. for 20 minutes. Following digestion, single smooth muscle cells were dispersed by gentle trituration with a wide-bore transfer pipette in Ca^2+-free HBSS and the cell suspension was placed on 25 mm glass cover slips. PASMCs were transiently cultured in Ham's-F-12 media supplemented with 0.5% fetal bovine serum and 1% penicillin/streptomycin for 24-48 hrs. before study.
# pHi within PASMCs was monitored using the cell permeant pH sensitive dye 2′,7′-bis(carboxyethyl)-5(6)-carboxyflourescein (BCECF-AM). Cells were incubated with BCECF-AM for 60 min at 37° C. under an atmosphere of 21% O2-5% CO2. Cells were then washed with Kreb's solution for 15 min at 37° C. to remove extracellular dye and allow complete de-esterification of cytosolic dye. Cells were excited with light at 490 and 440 nm and light emitted from the cells was detected at 530 nm. The ratio of 490 to 440 nm emission was calculated and converted into pH values by performing a calibration curve after each experiment. PASMCs were subjected to a high K^+ buffer containing 10 μM nigericin, which allowed the cell to adopt the pH of the high K^+ buffer. Two high K^+/nigericin buffers were used to set pH to 6.5 or 7.5, pHi was estimated from in situ calibration after each experiment. Cells were perfused with a solution containing (in mM): 105 KCl, 1 MgCl2, 1.5 CaCl2, 10 glucose, 20 HEPES-Tris and 0.01 nigericin to allow pHi to equilibrate to external pH as in Quinn D. A., et al., Am J Respir Cell Mol Biol 5: 586-591 (1991), which is hereby incorporated by reference in its entirety. A two point calibration was created from fluorescence measured as pHi was adjusted with KOH from 6.5 to 7.5. Intracellular H^+ ion concentration ([H^+]i) was determined from pHi using the formula: pHi=−log ([H^+]i).
# [1] = iv bolus + continuous infusion, hypoxia 2nd h
# [2] = iv bolus + continuous infusion, hypoxia 3rd h
# [3] = iv bolus + continuous infusion, normoxia 1st h
# [4] = po 5 mg/kg 12 and 1 hr before, hypoxia 2nd h
# [5] = po 5 mg/kg 12 and 1 hr before, hypoxia 3rd h
# [6] = po 5 mg/kg 12 and 1 hr before, normoxia 1st h
smiles,measurement,setting,value
"CCOc1ccc2nc(S(N)(=O)=O)sc2c1 [EZ, ethoxzolamide]",MPAP and PVR during hypoxia (words),Beagle dogs,increased; also recorded: did not prevent
same,"CO, cardiac output",Beagle dogs; [1],2.9 ± 0.2 L/min
same,"CVP, central venous pressure",Beagle dogs; [1],2.5 ± 0.2 cmH2O
same,"HR, heart rate",Beagle dogs; [1],104 ± 6 beats/min
same,"MAP, mean arterial pressure",Beagle dogs; [1],104 ± 7 mmHg
same,"MPAP, mean pulmonary arterial pressure",Beagle dogs; [1],17 ± 1 mmHg
same,"PCWP, pulmonary capillary wedge pressure",Beagle dogs; [1],4.0 ± 0.5 cm H2O
same,"SVR, systemic vascular resistance",Beagle dogs; [1],2745 ± 154 dyn · s^1 · cm^−5
same,"CO, cardiac output",Beagle dogs; [2],2.9 ± 0.3 L/min
same,"CVP, central venous pressure",Beagle dogs; [2],2.5 ± 0.2 cmH2O
same,"HR, heart rate",Beagle dogs; [2],106 ± 4 beats/min
same,"MAP, mean arterial pressure",Beagle dogs; [2],101 ± 1 mmHg
same,"MPAP, mean pulmonary arterial pressure",Beagle dogs; [2],16 ± 1 mmHg
same,"PCWP, pulmonary capillary wedge pressure",Beagle dogs; [2],3.5 ± 0.3 cm H2O
same,"SVR, systemic vascular resistance",Beagle dogs; [2],3270 ± 380 dyn · s^1 · cm^−5
same,"CO, cardiac output",Beagle dogs; [3],2.8 ± 0.2 L/min
same,"CVP, central venous pressure",Beagle dogs; [3],2.3 ± 0.2 cmH2O
same,"HR, heart rate",Beagle dogs; [3],77 ± 4 beats/min
same,"MAP, mean arterial pressure",Beagle dogs; [3],96 ± 2 mmHg
same,"MPAP, mean pulmonary arterial pressure",Beagle dogs; [3],11 ± 1 mmHg
same,"PCWP, pulmonary capillary wedge pressure",Beagle dogs; [3],3.8 ± 0.2 cm H2O
same,"PVR, pulmonary vascular resistance",Beagle dogs; [3],221 ± 21 dyn · s^−1 · cm^−5
same,"SVR, systemic vascular resistance",Beagle dogs; [3],2784 ± 200 dyn · s^1 · cm^−5
same,"basal pHi, Treatment",PASMCs; 100 μM,7.19 ± 0.04
same,effect on basal pHi,PASMCs; 100 μM,significant decrease
same,"basal pHi, Baseline",PASMCs,7.28 ± 0.04
"NS(=O)(=O)c1nnc(NS(=O)(=O)c2ccccc2)s1 [BZ, benzolamide]",MPAP and PVR during hypoxia (words),Beagle dogs; listed as Benzolamide,did not inhibit
same,MPAP and PVR during hypoxia (words),Beagle dogs; listed as benzolamide,increased
same,"CO, cardiac output",Beagle dogs; [1],2.6 ± 0.2 L/min
same,"CVP, central venous pressure",Beagle dogs; [1],1.5 ± 0.2 cmH2O
same,"HR, heart rate",Beagle dogs; [1],94 ± 10 beats/min
same,"MAP, mean arterial pressure",Beagle dogs; [1],109 ± 6 mmHg
same,"MPAP, mean pulmonary arterial pressure",Beagle dogs; [1],18 ± 1 mmHg
same,"PCWP, pulmonary capillary wedge pressure",Beagle dogs; [1],3.2 ± 0.4 cm H2O
same,"SVR, systemic vascular resistance",Beagle dogs; [1],3272 ± 113 dyn · s^1 · cm^−5
same,"CO, cardiac output",Beagle dogs; [2],2.7 ± 0.2 L/min
same,"CVP, central venous pressure",Beagle dogs; [2],1.2 ± 0.2 cmH2O
same,"HR, heart rate",Beagle dogs; [2],90 ± 8 beats/min
same,"MAP, mean arterial pressure",Beagle dogs; [2],109 ± 9 mmHg
same,"MPAP, mean pulmonary arterial pressure",Beagle dogs; [2],19 ± 1 mmHg
same,"PCWP, pulmonary capillary wedge pressure",Beagle dogs; [2],3.8 ± 0.3 cm H2O
same,"SVR, systemic vascular resistance",Beagle dogs; [2],3227 ± 83 dyn · s^1 · cm^−5
same,"CO, cardiac output",Beagle dogs; [3],2.7 ± 0.2 L/min
same,"CVP, central venous pressure",Beagle dogs; [3],1.8 ± 0.3 cmH2O
same,"HR, heart rate",Beagle dogs; [3],73 ± 6 beats/min
same,"MAP, mean arterial pressure",Beagle dogs; [3],102 ± 5 mmHg
same,"MPAP, mean pulmonary arterial pressure",Beagle dogs; [3],12 ± 1 mmHg
same,"PCWP, pulmonary capillary wedge pressure",Beagle dogs; [3],3.2 ± 0.2 cm H2O
same,"SVR, systemic vascular resistance",Beagle dogs; [3],3101 ± 376 dyn · s^1 · cm^−5
same,"basal pHi, Treatment",PASMCs; 100 μM,7.25 ± 0.03
same,effect on basal pHi,PASMCs; 100 μM,significant decrease
same,"basal pHi, Baseline",PASMCs,7.31 ± 0.02
"CC(=O)Nc1nnc(S(N)(=O)=O)s1 [AZ, acetazolamide]",MPAP and PVR during hypoxia (words),Beagle dogs,did not change
same,MPAP and PVR during hypoxia (words),Beagle dogs; listed as acetazolamide,still inhibited
same,"CO, cardiac output",Beagle dogs; [1],2.6 ± 0.2 L/min
same,"CVP, central venous pressure",Beagle dogs; [1],2.6 ± 0.6 cmH2O
same,"HR, heart rate",Beagle dogs; [1],92 ± 9 beats/min
same,"MAP, mean arterial pressure",Beagle dogs; [1],109 ± 7 mmHg
same,"MPAP, mean pulmonary arterial pressure",Beagle dogs; [1],15 ± 1 mmHg
same,"PCWP, pulmonary capillary wedge pressure",Beagle dogs; [1],3.5 ± 0.3 cm H2O
same,"SVR, systemic vascular resistance",Beagle dogs; [1],3348 ± 260 dyn · s^1 · cm^−5
same,"CO, cardiac output",Beagle dogs; [2],2.4 ± 0.1 L/min
same,"CVP, central venous pressure",Beagle dogs; [2],1.8 ± 0.5 cmH2O
same,"HR, heart rate",Beagle dogs; [2],98 ± 8 beats/min
same,"MAP, mean arterial pressure",Beagle dogs; [2],111 ± 6 mmHg
same,"MPAP, mean pulmonary arterial pressure",Beagle dogs; [2],14 ± 1 mmHg
same,"PCWP, pulmonary capillary wedge pressure",Beagle dogs; [2],3.3 ± 0.2 cm H2O
same,"SVR, systemic vascular resistance",Beagle dogs; [2],3675 ± 241 dyn · s^1 · cm^−5
same,"CO, cardiac output",Beagle dogs; [3],2.4 ± 0.2 L/min
same,"CVP, central venous pressure",Beagle dogs; [3],1.8 ± 0.3 cmH2O
same,"HR, heart rate",Beagle dogs; [3],70 ± 5 beats/min
same,"MAP, mean arterial pressure",Beagle dogs; [3],97 ± 4 mmHg
same,"MPAP, mean pulmonary arterial pressure",Beagle dogs; [3],14 ± 0 mmHg
same,"PCWP, pulmonary capillary wedge pressure",Beagle dogs; [3],3.5 ± 0.6 cm H2O
same,"SVR, systemic vascular resistance",Beagle dogs; [3],3347 ± 260 dyn · s^1 · cm^−5
same,PVR during hypoxia,Beagle dogs; po 5 mg/kg 12 and 1 hr before,did not change
same,MPAP during hypoxia,"Beagle dogs; po 5 mg/kg 12 and 1 hr before, after 2 hrs of hypoxia",increased slightly
same,"CO, cardiac output",Beagle dogs; [4],2.8 ± 0.2 L/min
same,"CVP, central venous pressure",Beagle dogs; [4],1.5 ± 0.2 cmH2O
same,"HR, heart rate",Beagle dogs; [4],101 ± 9 beats/min
same,"MAP, mean arterial pressure",Beagle dogs; [4],110 ± 5 mmHg
same,"MPAP, mean pulmonary arterial pressure",Beagle dogs; [4],17 ± 1 mmHg
same,"PCWP, pulmonary capillary wedge pressure",Beagle dogs; [4],3.3 ± 0.3 cm H2O
same,"SVR, systemic vascular resistance",Beagle dogs; [4],3238 ± 326 dyn · s^1 · cm^−5
same,"CO, cardiac output",Beagle dogs; [5],2.7 ± 0.3 L/min
same,"CVP, central venous pressure",Beagle dogs; [5],1.3 ± 0.2 cmH2O
same,"HR, heart rate",Beagle dogs; [5],103 ± 7 beats/min
same,"MAP, mean arterial pressure",Beagle dogs; [5],108 ± 7 mmHg
same,"MPAP, mean pulmonary arterial pressure",Beagle dogs; [5],17 ± 2 mmHg
same,"PCWP, pulmonary capillary wedge pressure",Beagle dogs; [5],3.6 ± 0.4 cm H2O
same,"SVR, systemic vascular resistance",Beagle dogs; [5],3270 ± 380 dyn · s^1 · cm^−5
same,"CO, cardiac output",Beagle dogs; [6],2.5 ± 0.2 L/min
same,"CVP, central venous pressure",Beagle dogs; [6],2.0 ± 0.3 cmH2O
same,"HR, heart rate",Beagle dogs; [6],78 ± 5 beats/min
same,"MAP, mean arterial pressure",Beagle dogs; [6],99 ± 1 mmHg
same,"MPAP, mean pulmonary arterial pressure",Beagle dogs; [6],12 ± 1 mmHg
same,"PCWP, pulmonary capillary wedge pressure",Beagle dogs; [6],3.5 ± 0.3 cm H2O
same,"SVR, systemic vascular resistance",Beagle dogs; [6],3301 ± 320 dyn · s^1 · cm^−5
same,effect on basal pHi,PASMCs; 100 μM,small decrease
same,effect of hypoxia on pHi in treated cells,"PASMCs; 100 μM, 4% O2",no effect
same,pHi after hypoxia in pretreated PASMCs,"PASMCs; 100 μM, 4% O2",7.24±0.03
same,"basal pHi, Baseline",PASMCs,7.26±0.02

# — patent US8614236B2 (University of Washington, priority 2006, dated 2013)
